The text below walks through data of US20030212014A1 (priority 2000, published 2003).

The subject of this experiment is HUVEC. The experiment is described as follows: Apoptosis in HUVEC incubated with 2-bromopalmitate. The experiment is classed as cell-based, human. The note with it: inhibition of free fatty acid oxidation. The protocol: To test this notion, experiments were performed in HUVEC incubated with 2-bromopalmitate, an inhibitor of CPT1 which inhibits free fatty oxidation, or a higher concentration of free fatty acids (0.5 mM vs. 0.1 mM palmitate).

Consider `CCCCCCCCCCCCCCC(Br)C(=O)O` (stereo not shown) [2-bromopalmitate], for which the apoptosis result was “promotes apoptosis”.
